Values of other authors, collected in article PMC9184245 (Journal of Pesticide Science, 2022).

Key:
[1] = measured value from experimental database; ref EPI Suite ver. 4.11
[2] = tested on: fish; details: biomagnification factor, corrected by lipid content and growth rate
[3] = measured value; ref REACH registered substances database

| Structure (SMILES) | log Kow [1] | Bioaccumulation potential, BMF [2] | Water solubility [3] |
| --- | --- | --- | --- |
| O=[N+]([O-])c1ccc(Oc2ccc(Cl)cc2Cl)cc1 [Compound 3, Nitrofen] | 4.64^a^) | BMF^d^)=0.179[4]) |  |
| CC(C)(C)c1cc(CCC(=O)OCC(COC(=O)CCc2cc(C(C)(C)C)c(O)c(C(C)(C)C)c2)(COC(=O)CCc2cc(C(C)(C)C)c(O)c(C(C)(C)C)c2)COC(=O)CCc2cc(C(C)(C)C)c(O)c(C(C)(C)C)c2)cc(C(C)(C)C)c1O [Compound 9, Pentaerythritol tetrakis[3-(3,5-di-tert-butyl-4-hydroxyphenyl)propionate]] |  |  | <0.1^c^) mg/L |
| c1ccc2c(c1)ccc1ccccc12 [Compound 1, Phenanthrene] | 4.46^a^) |  |  |
| COc1ccc(C(c2ccc(OC)cc2)C(Cl)(Cl)Cl)cc1 [Compound 4, Methoxychlor] | 5.08^a^) |  |  |
| c1ccc(-c2ccccc2-c2ccccc2)cc1 [Compound 2, o-Terphenyl] | 5.52^a^) |  |  |
